Data reported in PMC3055678 (ACS Medicinal Chemistry Letters, 2011).

Key:
panel of 402 kinases = assay: Ambit KINOMEscan ATP-site competition binding, panel of 402 kinases; settings: concentration of 10 μM, Erk5 = BMK1
BMK1 [1] = target: T1, BMK1 (Homo sapiens, UniProt Q13164); assay: Ambit KINOMEscan single-point score; type: binding; settings: concentration of 10 μM
BMK1 [2] = target: T1, BMK1; assay: EGF-stimulated BMK1 autophosphorylation in HeLa cells; settings: concentration of 1 μM

T1 sequence (Q13164 whole entry): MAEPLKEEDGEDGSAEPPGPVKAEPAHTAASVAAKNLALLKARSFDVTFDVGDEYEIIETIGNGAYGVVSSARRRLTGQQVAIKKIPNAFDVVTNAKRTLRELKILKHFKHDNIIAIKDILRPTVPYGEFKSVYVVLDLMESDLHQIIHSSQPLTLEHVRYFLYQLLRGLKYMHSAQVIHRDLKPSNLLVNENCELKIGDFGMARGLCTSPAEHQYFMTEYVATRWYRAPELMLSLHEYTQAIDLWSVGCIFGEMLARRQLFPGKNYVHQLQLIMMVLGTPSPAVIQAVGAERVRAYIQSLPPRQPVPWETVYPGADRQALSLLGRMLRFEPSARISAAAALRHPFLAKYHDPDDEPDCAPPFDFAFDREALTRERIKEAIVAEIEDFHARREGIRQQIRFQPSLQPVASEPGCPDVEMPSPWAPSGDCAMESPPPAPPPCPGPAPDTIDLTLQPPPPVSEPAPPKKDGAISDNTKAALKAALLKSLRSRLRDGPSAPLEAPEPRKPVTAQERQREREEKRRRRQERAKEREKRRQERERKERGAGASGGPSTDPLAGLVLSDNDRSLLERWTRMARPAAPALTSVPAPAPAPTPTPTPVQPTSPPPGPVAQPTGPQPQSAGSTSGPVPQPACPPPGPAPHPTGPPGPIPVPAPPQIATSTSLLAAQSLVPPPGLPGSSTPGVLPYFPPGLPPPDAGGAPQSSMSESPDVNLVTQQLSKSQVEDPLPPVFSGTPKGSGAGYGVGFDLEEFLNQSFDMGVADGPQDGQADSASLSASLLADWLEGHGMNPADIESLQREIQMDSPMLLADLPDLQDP

ambit score against BMK1 (BMK1 [1])	inhibition of BMK1 autophosphorylation (BMK1 [2])	Structure (SMILES)	kinase hits (kinases that exhibited greater than 95% displacement from an immobilized ligand) (panel of 402 kinases)
0.5		COc1cc(N2CCN(C)CC2)ccc1Nc1ncc2c(n1)N(C)c1ccccc1C(=O)N2 [compound 10]	ABL1(F317I), BRK, C-FMS, DCAMKL1, DCAMKL2, ERK5, FRK, GAK, KIT(L576P), MYLK4, TNK1, TNK2
0	significantly inhibited	COc1cc(N2CCN(C)CC2)ccc1Nc1ncc2c(n1)N(C)c1ccccc1C(=O)N2C [compound 11]	DCAMKL1, DCAMKL2, ERK5, FRK, MNK2, PKD1, PKD2, RSK4∼b, TAO1, TAO3, TNK1, TNK2, ULK1, ULK2
